Data on six compounds can be found in patent publication US4604380A, “C-23-substituted mycaminosyltylonolide compounds, pharmaceutical compositions and methods of use” (Eli Lilly and Company, priority 1985, dated 1986).

≈ marks a conversion by molar mass, not a printed value. Where “and” joins values, the source holds several entries; their conditions need not be identical. Equal entries are not always repeated. Where two headings read alike, the source gives them in different places.

Test [1] concerns Streptococcous pneumoniae. In words: ED50 vs. Streptococcous pneumoniae experimental infection in mice (Table VII). The test is classed as in vivo. As to conditions: two doses; for ED50: Mus musculus. As for the experimental part: (§1) Certain formula 1a compounds have also shown in vivo antimicrobial activity against experimental bacterial infections. When two doses of test compound were administered to mice in experimental infections, the activity observed was measured as an ED50 value [effective dose in mg/kg to protect 50% of the test animals: see Warren Wick, et al., J. Bacteriol. 81, 233-235 (1961)].

The subject of test [2] is Streptococcus pyogenes. The test can be described thus: ED50 vs Streptococcus pyogenes experimental infection in mice (Table VI). Particulars: two doses, several values = results from more than one test. The test is classed as in vivo. As for the experimental part: as §1
For test [3], the system named is Staphylococcus aureus X400. In words: MIC, standard agar-dilution assay (Table III). The test is classed as cell-based. As to conditions: Staphylococcus aureus, X400. As for the experimental part: (§2) The MIC's s in Table III were determined by standard agar-dilution assays. The MIC's in Table IV were obtained using a conventional broth-dilution microtiter test.
Test [4] relates to Staphylococcus aureus X1.1. The test can be described thus: MIC, standard agar-dilution assay (Table III). The test is classed as cell-based. How it is done: as §2
The test system of test [5] is Haemophilus influenzae C.L. The test can be described thus: MIC, standard agar-dilution assay (Table III). The test is classed as cell-based. How it is done: as §2
Test [6] has as its system Haemophilus influenzae 76. In words: MIC, standard agar-dilution assay (Table III). The test is classed as cell-based. As to conditions: agar dilution; Haemophilus influenzae 76, ampicillin-resistant strain; read-out: MIC. How it is done: as §2
(In agar dilution the substance is mixed into plates at graded concentrations.)

Test [7] deals with Streptococcus Group D X66. The test can be described thus: MIC, standard agar-dilution assay (Table III). The test is classed as cell-based. How it is done: as §2
Test [8] concerns Streptococcus pyogenes C203. The test can be described thus: MIC, standard agar-dilution assay (Table III). The test is classed as cell-based. How it is done:
as §2

In test [9] the test system is Streptococcus Group D 2041. The test can be described thus: MIC, standard agar-dilution assay (Table III). As to conditions: GROUPD2041. The test is classed as cell-based. How it is done: as §2
The subject of test [10] is Staphylococcus epidermidis 222. In words: MIC, standard agar-dilution assay (Table III). The test is classed as cell-based. As for the experimental part: as §2
Test [11] deals with Staphylococcus epidermidis EPI1. In words: MIC, standard agar-dilution assay (Table III). The test is classed as cell-based. As for the experimental part: as §2
The test system of test [12] is Staphylococcus aureus S13E. In words: MIC, standard agar-dilution assay (Table III). The test is classed as cell-based. As for the experimental part:
as §2

The subject of test [13] is Staphylococcus aureus V41. The test can be described thus: MIC, standard agar-dilution assay (Table III). The test is classed as cell-based. Particulars: Staphylococcus aureus V41, penicillin-resistant strain. How it is done: as §2
The test system of test [14] is Streptococcus pneumoniae Park I. The test can be described thus: microbe, parasite or virus in culture. The test is classed as cell-based. How it is done:
as §2

The subject of test [15] is Staphylococcus aureus. The test can be described thus: ED50 vs. Staphylococcus aureus experimental infection in mice (Table V). The test is classed as in vivo. As to conditions: two doses, dose protecting 50% of animals. How it is done: as §1
Setting [16] is: sc, subcutaneous, read-out: ED50 Subcutaneous.
Setting [17] is: agar dilution, Haemophilus influenzae C.L., ampicillin-sensitive strain, read-out: MIC.
Setting [18] is: agar dilution, Streptococcus Group D X66, read-out: MIC.
The mark [19] stands for this setting: agar dilution, Streptococcus pyogenes C203, read-out: MIC.
The mark [20] stands for this setting: agar dilution, Streptococcus Group D 2041, read-out: MIC.
The mark [21] stands for this setting: agar dilution, Staphylococcus epidermidis 222, read-out: MIC.
Setting [22] is: Staphylococcus epidermidis, EPI1.
[23] abbreviates: agar dilution, Streptococcus pneumoniae Park I, read-out: MIC.
Where [24] appears, read: Streptococcus pneumoniae, read-out: MIC.

The ED50 is the dose that gives a 50% effect, or the effect in half of the subjects. As for `CCC1OC(=O)CC(O)C(C)C(OC2OC(C)C(O)C(N(C)C)C2O)C(CC=O)CC(C)C(=O)C=CC(C)=CC1CN1CCc2ccccc2C1` (centres unmarked) [Compound 29, 23-deoxy-23-(3,4-dihydro-1H--isoquinolin-2-yl)-OMT], the median effective dose (ED50) in test [1] (setting [16]), in test [2] (setting [16]) and in test [15] (setting [16]) was above 10 mg/kg in each case. The MIC in [3] was 0.25 µg/mL (≈ 0.351 µM); in test [4] it was 0.25 µg/mL (≈ 0.351 µM); in [5] (setting [17]), 1 µg/mL (≈ 1.4 µM); in [6], 1 µg/mL (≈ 1.4 µM); in test [7] (setting [18]), 0.125 µg/mL (≈ 0.175 µM); in test [8] (setting [19]), 0.06 µg/mL (≈ 0.0842 µM). In addition, the MIC stood at 0.25 µg/mL (≈ 0.351 µM) in test [9] (setting [20]); 0.125 µg/mL (≈ 0.175 µM) in test [10] (setting [21]); 0.125 µg/mL (≈ 0.175 µM) in test [11] (agar dilution, Staphylococcus epidermidis EPI1, read-out: MIC); 0.25 µg/mL (≈ 0.351 µM) in test [12]; 0.25 µg/mL (≈ 0.351 µM) in test [13]; 0.03 µg/mL (≈ 0.0421 µM) in test [14] (Streptococcus pneumoniae).

Turning to `CCC1OC(=O)CC(O)C(C)C(OC2OC(C)C(O)C(N(C)C)C2O)C(CC=O)CC(C)C(=O)C=CC(C)=CC1CN1CCC2CCCCC21` (centres unmarked) [Compound 35, 23-deoxy-23-(octahydro-1H--indol-1-yl)-OMT], the ED50 came out at 71 mg/kg in test [1] (po, read-out: ED50 Oral); 87.1 mg/kg in test [2] (po, read-out: ED50 Oral); 1.86 mg/kg in test [2] (setting [16]); 100 mg/kg in test [15] (po, read-out: ED50 Oral). Moreover, in test [2] (subcutaneous), the “ED50 Subcutaneous” value is recorded as 2.5 mg/kg × 2. Also, the MIC in test [3] amounted to 0.25 µg/mL (≈ 0.355 µM); in test [4], 0.25 µg/mL (≈ 0.355 µM); in test [5] (setting [17]) it was 0.5 µg/mL (≈ 0.709 µM); in [6], 1 µg/mL (≈ 1.42 µM); in test [7], 0.25 µg/mL (≈ 0.355 µM); in [8] (Streptococcus pyogenes, C203), 0.5 µg/mL (≈ 0.709 µM). Moreover, the MIC in [9] worked out at 0.25 µg/mL (≈ 0.355 µM); in [10] (setting [21]) it was 0.125 µg/mL (≈ 0.177 µM); in [11] (setting [22]), 0.25 µg/mL (≈ 0.355 µM); in [12] it was 0.25 µg/mL (≈ 0.355 µM); in test [13], 0.25 µg/mL (≈ 0.355 µM); in test [14] (setting [23]) it was 1 µg/mL (≈ 1.42 µM).

Regarding `CCC1OC(=O)CC(O)C(C)C(OC2OC(C)C(O)C(N(C)C)C2O)C(CC=O)CC(C)C(=O)C=CC(C)=CC1CN(Cc1ccccc1)C1CC2CCC1C2` (centres unmarked) [Compound 6, 23-deoxy-23-[N--benzyl-N--(bicyclo[2.2.1]hept-2-yl)amino]-OMT], the ED50 in test [2] (po, read-out: ED50 Oral) was above 100 mg/kg; in [2] (setting [16]), above 10 mg/kg. Further, the MIC in [3] is 0.25 µg/mL (≈ 0.32 µM); in test [4], 0.25 µg/mL (≈ 0.32 µM); in test [5] (Haemophilus influenzae) it was 1 µg/mL (≈ 1.28 µM); in test [6] it was 0.5 µg/mL (≈ 0.64 µM); in [7], 0.25 µg/mL (≈ 0.32 µM); in test [8] (setting [19]), 0.06 µg/mL (≈ 0.0768 µM). Besides, the MIC in test [9] worked out at 0.25 µg/mL (≈ 0.32 µM); in [10] (setting [21]) it was 0.06 µg/mL (≈ 0.0768 µM); in test [11] (setting [22]) it was 0.25 µg/mL (≈ 0.32 µM); in test [12], 0.25 µg/mL (≈ 0.32 µM); in test [13], 0.25 µg/mL (≈ 0.32 µM); in test [14] (setting [23]) it was 0.125 µg/mL (≈ 0.16 µM).

For `CCC1OC(=O)CC(O)C(C)C(OC2OC(C)C(O)C(N(C)C)C2O)C(CC=O)CC(C)C(=O)C=CC(C)=CC1CN1CCC2CCCCC2C1` (centres unmarked) [Compound 33, 23-deoxy-23-(octahydro-1H--isoquinolin-2-yl)-OMT], the ED50 in test [1] (setting [16]) was 10 mg/kg; in test [2] (setting [16]) it was above 10 mg/kg; in [15] (setting [16]), 7.56 mg/kg. Moreover, the MIC in test [3] was 0.25 µg/mL (≈ 0.348 µM); in [4], 0.5 µg/mL (≈ 0.695 µM); in test [5] (Haemophilus influenzae), 0.5 µg/mL (≈ 0.695 µM); in [6] it was 0.25 µg/mL (≈ 0.348 µM); in test [7], 0.5 µg/mL (≈ 0.695 µM); in [8] (Streptococcus pyogenes, C203) it was 0.03 µg/mL (≈ 0.0417 µM). Further, the MIC in test [9] turned out to be 0.5 µg/mL (≈ 0.695 µM); in test [10] (setting [21]), 0.125 µg/mL (≈ 0.174 µM); in test [11] (setting [22]), 0.5 µg/mL (≈ 0.695 µM); in test [12] it was 0.5 µg/mL (≈ 0.695 µM); in test [13], 0.5 µg/mL (≈ 0.695 µM); in test [14] (setting [24]) it was 0.06 µg/mL (≈ 0.0835 µM).

Regarding `CCC1OC(=O)CC(O)C(C)C(OC2OC(C)C(O)C(N(C)C)C2O)C(CC=O)CC(C)C(=O)C=CC(C)=CC1CN1CC2CC=CCC2C1` (centres unmarked) [Compound 37], the ED50 was found to be 87 mg/kg in [1] (po, read-out: ED50 Oral); 1.66 mg/kg in [1] (setting [16]); 87 mg/kg in test [2] (po, read-out: ED50 Oral); 85 mg/kg in [15] (po, read-out: ED50 Oral); 2.74 mg/kg in test [15] (setting [16]). Further, the “ED50 Subcutaneous” value was 2.97 mg/kg × 2 in [1] (subcutaneous); 3.92 mg/kg × 2 and 3.42 mg/kg × 2 in test [15] (subcutaneous). For the same compound, the MIC is 0.25 µg/mL (≈ 0.356 µM) in test [3]; 0.25 µg/mL (≈ 0.356 µM) in test [4]; 0.5 µg/mL (≈ 0.711 µM) in test [5] (setting [17]); 1 µg/mL (≈ 1.42 µM) in test [6]; 0.125 µg/mL (≈ 0.178 µM) in test [7] (setting [18]); 0.06 µg/mL (≈ 0.0854 µM) in [8] (Streptococcus pyogenes, C203). Further, the MIC turned out to be 0.25 µg/mL (≈ 0.356 µM) in test [9] (setting [20]); 0.06 µg/mL (≈ 0.0854 µM) in test [10] (Staphylococcus epidermidis, 222); 0.25 µg/mL (≈ 0.356 µM) in [11] (setting [22]); 0.25 µg/mL (≈ 0.356 µM) in test [12]; 0.25 µg/mL (≈ 0.356 µM) in test [13]; 0.125 µg/mL (≈ 0.178 µM) in [14] (setting [23]).

Consider `CCC1OC(=O)CC(O)C(C)C(OC2OC(C)C(O)C(N(C)C)C2O)C(CC=O)CC(C)C(=O)C=CC(C)=CC1CN1CCC2(CCCCC2)CC1` (centres unmarked) [Compound 27, 23-deoxy-23-(3-azaspiro[5.5]undecan-3-yl)-OMT], for which the values for the ED50 in test [1] (setting [16]), in test [2] (setting [16]) and in test [15] (setting [16]) were above 10 mg/kg, above 10 mg/kg and 3.08 mg/kg, respectively. The MIC in test [3] stood at 0.5 µg/mL (≈ 0.682 µM); in [4], 0.5 µg/mL (≈ 0.682 µM); in test [5] (setting [17]) it was 2 µg/mL (≈ 2.73 µM); in [6], 2 µg/mL (≈ 2.73 µM); in [7] (setting [18]), 0.25 µg/mL (≈ 0.341 µM); in test [8] (setting [19]), 0.25 µg/mL (≈ 0.341 µM). Also, the MIC is 0.5 µg/mL (≈ 0.682 µM) in test [9]; 0.25 µg/mL (≈ 0.341 µM) in test [10] (setting [21]); 0.5 µg/mL (≈ 0.682 µM) in test [11] (setting [22]); 0.5 µg/mL (≈ 0.682 µM) in test [12]; 0.5 µg/mL (≈ 0.682 µM) in test [13]; 0.06 µg/mL (≈ 0.0819 µM) in [14] (setting [24]).
